Results as given in patent US20020049162A1, “Methods for inhibiting smooth muscle cell proliferation” (priority 2000, published 2002).
“Also recorded” adds a separate entry of the source. Square brackets hold non-standard residues; d marks the D form. Ends that are not written are not given here. Phe(4-NH2) = Nc1ccc(C[C@H](N)C(=O)O)cc1

Legend:
[1] = system: Human coronary artery smooth muscle cells; test: Inhibition of human smooth muscle cell proliferation (cell counts, growth rate vs wells without peptide); type: cell-based; settings: for % Control Proliferation Day 1 vs Day 4 / % Control Proliferation Day 1 vs Day 7: percentage of the control growth rate, values below 100 = inhibition, peptides 0.1-10 μg/ml, concentration not given; for Effect on proliferation of human smooth muscle cells (in words): compared with wells that did not contain peptide
[2] = system: smooth muscle cell growth after vascular injury; settings: Strawn et al., Hypertension 33:207-211 (1999); cited from earlier work
smooth muscle cell = settings: Strawn et al., Hypertension 33:207-211 (1999); cited from earlier work
AT2 receptor = settings: cited from earlier work
[3] = Unspecified earlier test of effectiveness of AII fragments; settings: test not described

For “A(1-7): AII residues 1-7, SEQ ID NO:4 (DRVYIHP) [reference compound]”, the “% Control Proliferation Day 1 vs Day 4” value [1] is given as 73.3%, the “% Control Proliferation Day 1 vs Day 7” value [1] is given as 63.3% and the “Smooth muscle cell growth after vascular injury (in words)” value [2] is given as “reduce smooth muscle cell growth after vascular injury”. The “Smooth muscle cell proliferation (in words)” value (smooth muscle cell) was “inhibit smooth muscle cell proliferation”.
In the case of “Arg—Val—Tyr—Ile—His—Pro (RVYIHP) [A(2-7)]”, the “Effect on proliferation of human smooth muscle cells (in words)” value (“Effect on proliferation” for short) [1] was “inhibited smooth muscle cell proliferation”, the “% Control Proliferation Day 1 vs Day 4” value [1] was 82.4% and the “% Control Proliferation Day 1 vs Day 7” value [1] was 64.8%.
For Asp—Arg—Val—Tyr—Ile (DRVYI) [A(1-5)], the “% Control Proliferation Day 1 vs Day 4” value [1] was 85.9% and the “% Control Proliferation Day 1 vs Day 7” value [1] was 83.1%.
With “Asp—Arg—Val—Tyr—Ile—His—Pro—Phe (DRVYIHPF) [AII, reference compound]” the “Effect on proliferation” value [1] was “increased the proliferation”, the “% Control Proliferation Day 1 vs Day 4” value [1] was 121.4% and the “% Control Proliferation Day 1 vs Day 7” value [1] was 154.5%. For the same substance, the “Affinity for AT2 relative to AT1” value (AT2 receptor; higher affinity for AT2 than AT1, Speth and Kim 1990) was 100 times.
For “Asp—Arg—Val—Tyr—Ile—Xaa—Pro—Phe (DRVYI[Phe(4-NH2)]PF) [p-aminophenylalanine6-AII]”, the “Binding characteristics (in words)” value (AT2 receptor; experimental models of Catalioto 1994, Bryson 1992) is given as “comparable to AT2 antagonists”.
For DRKYIHP [Peptide 5GD], the “Effect on proliferation” value [1] was “inhibited smooth muscle cell proliferation”, the “% Control Proliferation Day 1 vs Day 4” value [1] was 86.6% and the “% Control Proliferation Day 1 vs Day 7” value [1] was 80.1%.
For DRP(OH)AIHP [Peptide 8GD], the “Effect on proliferation” value [1] was “inhibited smooth muscle cell proliferation”, the “% Control Proliferation Day 1 vs Day 4” value [1] was 72.6% and the “% Control Proliferation Day 1 vs Day 7” value [1] was 66.4%.
With DRVAIHP [Peptide 1GD] the “Effect on proliferation” value [1] was “inhibited smooth muscle cell proliferation”, the “% Control Proliferation Day 1 vs Day 4” value [1] was 55.4% and the “% Control Proliferation Day 1 vs Day 7” value [1] was 54.2%.
With DRVYIH [A(1-6)] the “Effect on proliferation” value [1] was “inhibited smooth muscle cell proliferation”, the “% Control Proliferation Day 1 vs Day 4” value [1] was 76.5% and the “% Control Proliferation Day 1 vs Day 7” value [1] was 61.1%.
In the case of His—Pro—Phe (HPF) [AII(6-8)], the “Effectiveness (in words)” value [3] was “not to be effective”.
In the case of Ile—His—Pro—Phe (IHPF) [A(5-8)], the “Effect on proliferation” value [1] was “inhibited smooth muscle cell proliferation”, the “% Control Proliferation Day 1 vs Day 4” value [1] was 63.1% and the “% Control Proliferation Day 1 vs Day 7” value [1] was 55.0%.
In the case of Tyr—Ile—His—Pro—Phe (YIHPF) [AII(4-8)], the “Effectiveness (in words)” value [3] was “not to be effective; also recorded: ineffective”.
With Val—Tyr—Ile—His—Pro (VYIHP) [A(3-7)] the “Effect on proliferation” value [1] was “inhibited smooth muscle cell proliferation”, the “% Control Proliferation Day 1 vs Day 4” value [1] was 80.5% and the “% Control Proliferation Day 1 vs Day 7” value [1] was 70.0%.
With “Val—Tyr—Ile—His—Pro—Phe (VYIHPF) [A(3-8)]” the “Effect on proliferation” value [1] was “inhibited smooth muscle cell proliferation”, the “% Control Proliferation Day 1 vs Day 4” value [1] was 74.7% and the “% Control Proliferation Day 1 vs Day 7” value [1] was 61.7%.
